We go through three compounds from patent publication US6534526B2, “Laminitis in horses” (Clemson University, priority 2001, dated 2003).

Molecules are shown by their SMILES. Where a name gives a salt, the structure may show the parent alone.

The conditions of series [1]: α-adrenergic antagonists examined for laminitis; background statement; cited from earlier work.
Series [2] deals with laminitis in horses. Put plainly: Oral domperidone treatment of laminitic horses (case examples 1-6).

With `CC(=O)c1ccc2c(c1)N(CCCN(C)C)c1ccccc1S2` [acepromazine maleate], in series [1], the side effects result is “sedation and cholinesterase inhibition”.

`O=c1[nH]c2ccccc2n1CCCN1CCC(n2c(=O)[nH]c3cc(Cl)ccc32)CC1` [domperidone, 5-Chloro-1-[1-[3-(2,3-dihydro-2-oxo-1H-benzimidazol-1-yl)propyl]-4-piperidinyl]-1,3-dihydro-2H-benzimidazol-2-one]: the “side effects during treatment” value in series [2] (Example 1: 1.1 mg/kg orally twice a day) is listed as “no side effects noted”. Moreover, in series [2] (Example 1: 1.1 mg/kg orally twice a day for 15 days), the “time the mare remained sound” value is “at least 15 days”. The laminitic symptoms entry in series [2] (Example 1: 15 year old Arabian mare, chronic founder, 1.1 mg/kg orally twice a day, after three days of treatment) is recorded as “laminitic symptoms had disappeared”; in series [2] (Example 5: horse with lameness of unknown etiology, 1.1 mg/kg orally SID for 5 days), “disappeared after the second day of treatment”. In addition, the “return of laminitic symptoms” value is given as “Laminitic symptoms did not return” in series [2] (Example 1: after the resumed treatment) and “did not return” in series [2] (Example 5: 1.1 mg/kg orally SID for 5 days). Besides, the “soundness after resumed treatment” value in series [2] (Example 1: treatment resumed a few weeks later after return of symptoms, after four days of treatment) is recorded as “the mare was sound again”. Further, in series [2] (Example 2: pony of approx. 400 pounds, laminitic founder due to grain overload, 1.1 mg/kg orally twice per day, second day of treatment), the walking / stiffness entry is on record as “walking the second day of treatment with no apparent stiffness”. Moreover, the recovery result in series [2] (Example 2: pony, treatment continued for an additional two days) was “Complete recovery was apparent”; in series [2] (Example 4: mare, 1.1 mg/kg orally SID for 5 days), “fully recovered”. For the same compound, in series [2] (Example 3: total treatment 5 days), the return of symptoms result is recorded as “No return of symptoms was noted”. Also, the symptoms entry in series [2] (Example 3: two horses with early signs of laminitis, 1.1 mg/kg orally twice per day, after two days of treatment) is “Symptoms were gone in both animals”. In addition, the signs of laminitis entry in series [2] (Example 4: mare laminitic for several weeks, 1.1 mg/kg orally SID for 5 days, after three days of treatment) was “showing no signs of laminitis”. Also, the improvement entry in series [2] (Example 6: 1.1 mg/kg domperidone orally twice a day plus banamine plus acepromazine, after ten days of treatment) is given as “about 75%”. For the same compound, the walking result in series [2] (Example 6: Paso Fino mare, 1.1 mg/kg domperidone orally twice a day plus banamine plus acepromazine, afternoon of the second day of treatment) is “had improved and was walking some on her own, without prodding”. The “effectiveness against laminitic symptoms” value in series [2] (horses, recommended concentrations, administered at least once per day) is “found to be effective”. The “benefit at higher oral concentrations” value in series [2] (oral, concentrations greater than 3.3 mg/kg) was “no further benefits have been observed”. Besides, the “oral concentration giving the best results” value in series [2] (taken orally) is “about 1.1 mg/kg”.

As to `CC(COc1ccccc1)N(CCCl)Cc1ccccc1` (centres unmarked) [phenoxybenzamine], the side effects result in series [1] was “hypotension, recumbency, and a prolonged duration of action”.
